Test results: patent US11572369B2, “Bicyclic pyridine compositions and methods of using the same for cancer therapy” (UNIVERSITY OF SOUTH CAROLINA, priority 2019, dated 2023)

Experiments:
Experiment in all cases: KINOMEscan
Format in all cases: binding
Conditions in all cases: 2000 nM
[1] = target: T1, ABL1(E255K)-phosphorylated (Homo sapiens, UniProt P00519, E255K)
T1 construct: DNA label (qPCR read-out); purchased DiscoverX (KINOMEscan service)

PIK3CA(E545A) = target: T2, PIK3CA(E545A) (Homo sapiens, UniProt P42336, E545A)
T2 construct: DNA label; purchased DiscoveRx (KINOMEscan scanMAX panel)

PKAC-beta = target: T3, PKAC-beta (Homo sapiens, UniProt P22694)
T3 construct: DNA label (qPCR read-out); purchased KINOMEscan (DiscoveRx) panel

CAMK2A = target: T4, CAMK2A (Homo sapiens, UniProt Q9UQM7)
T4 construct: DNA label (qPCR read-out); purchased KINOMEscan (ScanMAX panel service)

KIT = target: T5, KIT (Homo sapiens, UniProt P10721)
T5 construct: DNA label (for qPCR read-out); purchased DiscoveRx (KINOMEscan scanMAX panel)

CIT = target: T6, CIT (Homo sapiens, UniProt O14578)
T6 construct: DNA label (for qPCR read-out); purchased DiscoveRx (KINOMEscan scanMAX service)

MRCKA = target: T7, MRCKA (Homo sapiens, UniProt Q5VT25)
T7 construct: DNA label (qPCR read-out); purchased KINOMEscan scanMAX panel (DiscoveRx)

ABL1-phosphorylated = ABL1-phosphorylated (Homo sapiens, UniProt P00519)
NDR2 = target: T8, NDR2 (Homo sapiens, UniProt Q9Y2H1)
T8 construct: DNA label (for qPCR read-out); purchased KINOMEscan scanMAX panel (DiscoveRx)

PKN2 = target: T9, PKN2 (Homo sapiens, UniProt Q16513)
T9 construct: DNA label (qPCR read-out); purchased KINOMEscan (DiscoveRx) panel

[2] = target: T10, EGFR(L747-E749del, A750P) (Homo sapiens, UniProt P00533, A750P/DEL747-749)
T10 construct: purchased DiscoveRx (KINOMEscan scanMAX panel)

WNK1 = target: T11, WNK1 (Homo sapiens, UniProt Q9H4A3)
T11 construct: purchased KINOMEscan (DiscoveRx) panel service

FGFR3 = target: T12, FGFR3 (Homo sapiens, UniProt P22607)
T12 construct: purchased DiscoveRx (KINOMEscan scanMAX panel)

INSR = target: T13, INSR (Homo sapiens, UniProt P06213)
T13 construct: DNA label (qPCR read-out); purchased KINOMEscan (DiscoveRx) ScanMAX panel

EPHA4 = target: T14, EPHA4 (Homo sapiens, UniProt P54764)
T14 construct: purchased DiscoveRx (KINOMEscan scanMAX panel)

PAK1 = target: T15, PAK1 (Homo sapiens, UniProt Q13153)
T15 construct: purchased DiscoverX (KINOMEscan service)

RET(V804M) = target: T16, RET(V804M) (Homo sapiens, UniProt P07949, V804M)
T16 construct: purchased DiscoveRx (KINOMEscan scanMAX panel)

CAMK2G = target: T17, CAMK2G (Homo sapiens, UniProt Q13555)
T17 construct: DNA label (qPCR read-out); purchased KINOMEscan (ScanMAX panel service)

PIM1 = target: T18, PIM1 (Homo sapiens, UniProt P11309)
T18 construct: DNA label (qPCR read-out); purchased KINOMEscan (DiscoveRx) panel

TESK1 = target: T19, TESK1 (Homo sapiens, UniProt Q15569)
T19 construct: DNA label (for qPCR read-out); purchased DiscoveRx (KINOMEscan scanMAX panel, contract assay)

PDGFRA = target: T20, PDGFRA (Homo sapiens, UniProt P16234)
T20 construct: DNA label (for qPCR read-out); purchased DiscoveRx (KINOMEscan scanMAX service)

MKNK2 = target: T21, MKNK2 (Homo sapiens, UniProt Q9HBH9)
T21 construct: DNA label (qPCR read-out); purchased KINOMEscan scanMAX panel (DiscoveRx)

MYLK = target: T22, MYLK (Homo sapiens, UniProt Q15746)
T22 construct: DNA label (for qPCR read-out); purchased KINOMEscan scanMAX panel (DiscoveRx)

ADCK4 = target: T23, ADCK4 (Homo sapiens, UniProt Q96D53)
T23 construct: purchased DiscoveRx (KINOMEscan scanMAX panel, service)

PIK4CB = target: T24, PIK4CB (Homo sapiens, UniProt Q9UBF8)
T24 construct: DNA label; purchased DiscoveRx (KINOMEscan scanMAX panel)

CAMK2D = target: T25, CAMK2D (Homo sapiens, UniProt Q13557)
T25 construct: DNA label (qPCR read-out); purchased KINOMEscan (ScanMAX panel service)

IRAK3 = target: T26, IRAK3 (Homo sapiens, UniProt Q9Y616)
T26 construct: DNA label (qPCR read-out); purchased KINOMEscan (DiscoveRx) ScanMAX panel

LIMK2 = target: T27, LIMK2 (Homo sapiens, UniProt P53671)
T27 construct: purchased KINOMEscan (DiscoveRx) panel service

SRPK2 = target: T28, SRPK2 (Homo sapiens, UniProt P78362)
T28 construct: purchased KINOMEscan (DiscoveRx)

JNK2 = target: T29, JNK2 (Homo sapiens, UniProt P45984)
T29 construct: DNA label (for qPCR read-out); purchased DiscoveRx (KINOMEscan scanMAX panel)

PCTK1 = target: T30, PCTK1 (Homo sapiens, UniProt Q00536)
T30 construct: purchased DiscoverX (KINOMEscan service)

PIP5K1C = target: T31, PIP5K1C (Homo sapiens, UniProt O60331)
T31 construct: DNA label (qPCR read-out); purchased KINOMEscan (DiscoveRx) panel

ERK8 = target: T32, ERK8 (Homo sapiens, UniProt Q8TD08)
T32 construct: DNA label (qPCR read-out); purchased DiscoveRx (KINOMEscan ScanMAX panel)

ASK1 = target: T33, ASK1 (Homo sapiens, UniProt Q99683)
T33 construct: DNA label (qPCR read-out); purchased KINOMEscan scanMAX panel (DiscoveRx)

LCK = target: T34, LCK (Homo sapiens, UniProt P06239)
T34 construct: purchased KINOMEscan (DiscoveRx) panel service

T17 sequence (Q13555 whole entry): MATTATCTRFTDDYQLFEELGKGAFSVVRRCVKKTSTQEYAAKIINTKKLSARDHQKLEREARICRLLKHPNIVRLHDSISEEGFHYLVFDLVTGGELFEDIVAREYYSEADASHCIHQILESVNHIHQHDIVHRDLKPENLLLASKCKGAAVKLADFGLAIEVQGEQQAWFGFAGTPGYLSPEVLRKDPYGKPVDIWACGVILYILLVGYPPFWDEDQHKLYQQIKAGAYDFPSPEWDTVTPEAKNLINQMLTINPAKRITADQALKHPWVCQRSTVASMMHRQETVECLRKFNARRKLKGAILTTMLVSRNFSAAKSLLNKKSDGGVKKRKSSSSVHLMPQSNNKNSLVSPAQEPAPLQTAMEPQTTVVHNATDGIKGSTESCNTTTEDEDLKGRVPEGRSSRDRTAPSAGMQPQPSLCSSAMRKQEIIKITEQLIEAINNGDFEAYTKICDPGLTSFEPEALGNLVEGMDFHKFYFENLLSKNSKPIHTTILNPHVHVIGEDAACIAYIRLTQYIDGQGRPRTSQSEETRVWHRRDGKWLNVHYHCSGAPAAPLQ
T15 sequence (Q13153 whole entry): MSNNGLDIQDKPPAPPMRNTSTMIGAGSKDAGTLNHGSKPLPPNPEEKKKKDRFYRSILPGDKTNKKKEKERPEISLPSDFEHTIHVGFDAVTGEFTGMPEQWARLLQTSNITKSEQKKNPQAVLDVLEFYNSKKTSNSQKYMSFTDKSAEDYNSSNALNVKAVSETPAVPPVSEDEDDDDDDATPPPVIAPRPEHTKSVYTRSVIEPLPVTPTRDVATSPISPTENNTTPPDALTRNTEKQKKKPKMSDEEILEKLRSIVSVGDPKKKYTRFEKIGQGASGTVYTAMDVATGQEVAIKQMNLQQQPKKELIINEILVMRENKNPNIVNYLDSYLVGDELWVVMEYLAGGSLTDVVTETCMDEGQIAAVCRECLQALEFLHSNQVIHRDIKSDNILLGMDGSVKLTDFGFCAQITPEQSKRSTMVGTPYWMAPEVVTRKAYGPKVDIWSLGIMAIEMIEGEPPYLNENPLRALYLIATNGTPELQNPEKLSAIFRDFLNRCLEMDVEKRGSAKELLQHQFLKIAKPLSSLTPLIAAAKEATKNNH
T14 sequence (P54764 20-986): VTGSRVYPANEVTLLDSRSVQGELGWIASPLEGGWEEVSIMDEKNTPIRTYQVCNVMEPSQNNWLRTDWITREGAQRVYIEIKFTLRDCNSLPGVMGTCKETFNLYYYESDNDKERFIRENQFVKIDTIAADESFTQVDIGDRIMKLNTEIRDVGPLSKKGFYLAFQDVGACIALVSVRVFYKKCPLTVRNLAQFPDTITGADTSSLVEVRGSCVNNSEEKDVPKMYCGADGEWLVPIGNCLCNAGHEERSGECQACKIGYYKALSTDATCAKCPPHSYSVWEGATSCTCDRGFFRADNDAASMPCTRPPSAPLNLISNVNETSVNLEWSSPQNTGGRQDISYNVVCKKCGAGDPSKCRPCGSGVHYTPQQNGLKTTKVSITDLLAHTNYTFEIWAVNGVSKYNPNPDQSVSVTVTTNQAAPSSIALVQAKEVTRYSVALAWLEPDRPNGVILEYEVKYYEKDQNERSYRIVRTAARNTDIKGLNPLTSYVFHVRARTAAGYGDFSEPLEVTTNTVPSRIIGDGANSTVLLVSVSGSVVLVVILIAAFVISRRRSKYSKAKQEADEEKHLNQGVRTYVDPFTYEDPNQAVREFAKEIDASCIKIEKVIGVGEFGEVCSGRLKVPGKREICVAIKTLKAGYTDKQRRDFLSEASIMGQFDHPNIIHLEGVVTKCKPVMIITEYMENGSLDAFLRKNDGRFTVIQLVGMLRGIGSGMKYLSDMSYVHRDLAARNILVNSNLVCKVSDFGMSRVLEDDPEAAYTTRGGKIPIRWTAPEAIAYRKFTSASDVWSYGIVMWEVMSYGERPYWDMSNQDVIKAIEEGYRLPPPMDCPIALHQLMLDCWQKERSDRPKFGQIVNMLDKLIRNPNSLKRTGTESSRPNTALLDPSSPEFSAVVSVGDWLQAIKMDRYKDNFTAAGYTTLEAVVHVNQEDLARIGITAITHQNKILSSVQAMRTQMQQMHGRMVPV
T24 sequence (Q9UBF8 whole entry): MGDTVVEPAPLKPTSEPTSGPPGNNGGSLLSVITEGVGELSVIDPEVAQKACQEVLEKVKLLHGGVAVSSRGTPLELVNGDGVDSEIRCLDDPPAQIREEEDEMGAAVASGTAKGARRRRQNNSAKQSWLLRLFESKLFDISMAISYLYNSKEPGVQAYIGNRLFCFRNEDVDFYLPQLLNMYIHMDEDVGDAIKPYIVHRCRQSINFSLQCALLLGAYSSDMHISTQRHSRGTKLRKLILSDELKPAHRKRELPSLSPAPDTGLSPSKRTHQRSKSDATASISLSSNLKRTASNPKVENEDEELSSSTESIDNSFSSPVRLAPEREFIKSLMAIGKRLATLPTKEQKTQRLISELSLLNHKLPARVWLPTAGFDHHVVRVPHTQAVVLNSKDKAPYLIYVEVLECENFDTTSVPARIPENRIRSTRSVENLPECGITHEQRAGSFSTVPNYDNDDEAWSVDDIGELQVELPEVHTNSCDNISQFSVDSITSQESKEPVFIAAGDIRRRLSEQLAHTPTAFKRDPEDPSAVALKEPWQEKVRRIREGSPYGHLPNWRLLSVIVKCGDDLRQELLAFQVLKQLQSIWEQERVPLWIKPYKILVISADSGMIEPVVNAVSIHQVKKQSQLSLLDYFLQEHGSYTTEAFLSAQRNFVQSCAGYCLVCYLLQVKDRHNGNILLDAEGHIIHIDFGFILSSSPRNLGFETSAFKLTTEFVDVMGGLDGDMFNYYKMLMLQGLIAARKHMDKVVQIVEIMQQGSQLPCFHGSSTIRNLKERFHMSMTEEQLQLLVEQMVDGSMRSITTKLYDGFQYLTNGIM
T7 sequence (Q5VT25 whole entry): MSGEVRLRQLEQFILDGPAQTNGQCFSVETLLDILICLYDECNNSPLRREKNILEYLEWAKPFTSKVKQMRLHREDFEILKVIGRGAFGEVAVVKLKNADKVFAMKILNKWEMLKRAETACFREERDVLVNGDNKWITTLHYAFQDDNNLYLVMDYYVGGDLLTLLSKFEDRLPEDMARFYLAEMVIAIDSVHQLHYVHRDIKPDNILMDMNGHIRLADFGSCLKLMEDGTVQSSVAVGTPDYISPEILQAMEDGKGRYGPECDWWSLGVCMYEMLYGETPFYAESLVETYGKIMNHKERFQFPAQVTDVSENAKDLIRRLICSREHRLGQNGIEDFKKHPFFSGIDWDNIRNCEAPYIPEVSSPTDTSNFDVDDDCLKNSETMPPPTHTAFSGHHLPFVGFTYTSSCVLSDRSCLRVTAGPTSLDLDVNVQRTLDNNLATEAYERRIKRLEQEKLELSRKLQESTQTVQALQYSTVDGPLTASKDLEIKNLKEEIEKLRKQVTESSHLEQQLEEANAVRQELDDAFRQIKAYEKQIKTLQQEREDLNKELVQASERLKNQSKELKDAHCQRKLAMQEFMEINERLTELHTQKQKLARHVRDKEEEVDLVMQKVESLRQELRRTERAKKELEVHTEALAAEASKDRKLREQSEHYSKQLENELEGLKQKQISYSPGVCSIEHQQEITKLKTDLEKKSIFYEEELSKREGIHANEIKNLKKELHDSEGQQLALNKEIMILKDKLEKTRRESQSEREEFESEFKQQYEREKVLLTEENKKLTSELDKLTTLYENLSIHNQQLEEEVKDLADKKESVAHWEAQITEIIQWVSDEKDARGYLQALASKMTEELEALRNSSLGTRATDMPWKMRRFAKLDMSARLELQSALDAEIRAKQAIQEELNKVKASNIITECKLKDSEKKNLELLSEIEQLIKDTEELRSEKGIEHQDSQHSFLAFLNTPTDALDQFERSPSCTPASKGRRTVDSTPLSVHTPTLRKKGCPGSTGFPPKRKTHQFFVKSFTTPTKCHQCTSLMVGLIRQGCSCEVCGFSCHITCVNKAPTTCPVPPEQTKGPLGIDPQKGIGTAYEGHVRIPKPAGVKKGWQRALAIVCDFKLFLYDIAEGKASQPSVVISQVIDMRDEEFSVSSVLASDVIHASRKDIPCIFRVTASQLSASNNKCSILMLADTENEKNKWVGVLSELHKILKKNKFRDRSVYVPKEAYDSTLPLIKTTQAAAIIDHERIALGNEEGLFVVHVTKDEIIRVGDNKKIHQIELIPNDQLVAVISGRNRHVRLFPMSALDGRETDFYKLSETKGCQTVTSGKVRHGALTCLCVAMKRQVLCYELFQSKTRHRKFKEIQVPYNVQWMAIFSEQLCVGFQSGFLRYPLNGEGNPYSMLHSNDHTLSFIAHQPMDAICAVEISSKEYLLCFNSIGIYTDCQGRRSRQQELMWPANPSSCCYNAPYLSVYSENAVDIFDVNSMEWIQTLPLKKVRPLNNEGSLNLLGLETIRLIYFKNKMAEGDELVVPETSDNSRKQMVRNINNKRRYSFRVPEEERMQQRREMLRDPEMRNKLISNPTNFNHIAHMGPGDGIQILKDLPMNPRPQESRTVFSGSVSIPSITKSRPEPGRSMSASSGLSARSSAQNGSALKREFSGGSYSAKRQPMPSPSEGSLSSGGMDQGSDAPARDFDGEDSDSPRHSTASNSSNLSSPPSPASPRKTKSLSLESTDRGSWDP
T8 sequence (Q9Y2H1 whole entry): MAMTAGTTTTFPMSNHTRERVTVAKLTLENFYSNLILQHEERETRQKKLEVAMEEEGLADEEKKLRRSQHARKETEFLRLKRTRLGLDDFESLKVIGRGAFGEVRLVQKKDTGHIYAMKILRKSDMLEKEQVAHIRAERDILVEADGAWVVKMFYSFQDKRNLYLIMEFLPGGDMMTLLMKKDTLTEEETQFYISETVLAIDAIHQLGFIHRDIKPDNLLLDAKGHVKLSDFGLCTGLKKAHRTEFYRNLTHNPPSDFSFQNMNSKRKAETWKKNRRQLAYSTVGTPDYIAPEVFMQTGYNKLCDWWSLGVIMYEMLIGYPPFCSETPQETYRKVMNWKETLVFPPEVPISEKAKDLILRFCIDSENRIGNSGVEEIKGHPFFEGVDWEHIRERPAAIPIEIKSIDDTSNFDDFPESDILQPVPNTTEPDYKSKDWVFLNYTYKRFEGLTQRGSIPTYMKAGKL

CN(C)C(=O)c1ccc(N2CCCN(c3ccnc4sc(C(N)=O)c(N)c34)CC2)cc1 [15u, 3-amino-4-(4-(4-(dimethylcarbamoyl)phenyl)-1,4-diazepan-1-yl)thieno[2,3-b]pyridine-2-carboxamide]
% Ctrl [1]: 100 % Ctrl | % Ctrl (PIK3CA(E545A)): 100 % Ctrl | % Ctrl (PKAC-beta): 83 % Ctrl | % Ctrl (CAMK2A): 90 % Ctrl | % Ctrl (KIT): 95 % Ctrl | % Ctrl (CIT): 51 % Ctrl | % Ctrl (MRCKA): 94 % Ctrl | % Ctrl (ABL1-phosphorylated): 90 % Ctrl | % Ctrl (NDR2): 99 % Ctrl | % Ctrl (PKN2): 100 % Ctrl | % Ctrl [2]: 99 % Ctrl | % Ctrl (WNK1): 100 % Ctrl | % Ctrl (FGFR3): 98 % Ctrl | % Ctrl (INSR): 97 % Ctrl | % Ctrl (EPHA4): 100 % Ctrl | % Ctrl (PAK1): 96 % Ctrl | % Ctrl (RET(V804M)): 100 % Ctrl | % Ctrl (CAMK2G): 100 % Ctrl | % Ctrl (PIM1): 88 % Ctrl | % Ctrl (TESK1): 83 % Ctrl | % Ctrl (PDGFRA): 70 % Ctrl | % Ctrl (MKNK2): 83 % Ctrl | % Ctrl (MYLK): 74 % Ctrl | % Ctrl (ADCK4): 95 % Ctrl | % Ctrl (PIK4CB): 65 % Ctrl | % Ctrl (CAMK2D): 99 % Ctrl | % Ctrl (IRAK3): 93 % Ctrl | % Ctrl (LIMK2): 91 % Ctrl | % Ctrl (SRPK2): 93 % Ctrl | % Ctrl (JNK2): 99 % Ctrl | % Ctrl (PCTK1): 92 % Ctrl | % Ctrl (PIP5K1C): 64 % Ctrl | % Ctrl (ERK8): 98 % Ctrl | % Ctrl (ASK1): 100 % Ctrl | % Ctrl (LCK): 91 % Ctrl

[2H]C([2H])([2H])N(C(=O)c1ccc(N2CCCN(c3ccnc4sc(C(N)=O)c(N)c34)CC2)cc1)C([2H])([2H])[2H] [15u_D6, 3-amino-4-(4-(4-(bis(methyl-d3)carbamoyl)phenyl)-1,4-diazepan-1-yl)thieno[2,3-b]pyridine-2-carboxamide]
% Ctrl [1]: 82 % Ctrl | % Ctrl (PIK3CA(E545A)): 92 % Ctrl | % Ctrl (PKAC-beta): 100 % Ctrl | % Ctrl (CAMK2A): 100 % Ctrl | % Ctrl (KIT): 95 % Ctrl | % Ctrl (CIT): 65 % Ctrl | % Ctrl (MRCKA): 100 % Ctrl | % Ctrl (ABL1-phosphorylated): 77 % Ctrl | % Ctrl (NDR2): 36 % Ctrl | % Ctrl (PKN2): 100 % Ctrl | % Ctrl [2]: 100 % Ctrl | % Ctrl (WNK1): 93 % Ctrl | % Ctrl (FGFR3): 99 % Ctrl | % Ctrl (INSR): 80 % Ctrl | % Ctrl (EPHA4): 100 % Ctrl | % Ctrl (PAK1): 92 % Ctrl | % Ctrl (RET(V804M)): 100 % Ctrl | % Ctrl (CAMK2G): 100 % Ctrl | % Ctrl (PIM1): 100 % Ctrl | % Ctrl (TESK1): 100 % Ctrl | % Ctrl (PDGFRA): 65 % Ctrl | % Ctrl (MKNK2): 69 % Ctrl | % Ctrl (MYLK): 71 % Ctrl | % Ctrl (ADCK4): 83 % Ctrl | % Ctrl (PIK4CB): 33 % Ctrl | % Ctrl (CAMK2D): 92 % Ctrl | % Ctrl (IRAK3): 89 % Ctrl | % Ctrl (LIMK2): 98 % Ctrl | % Ctrl (SRPK2): 100 % Ctrl | % Ctrl (JNK2): 54 % Ctrl | % Ctrl (PCTK1): 64 % Ctrl | % Ctrl (PIP5K1C): 25 % Ctrl | % Ctrl (ERK8): 99 % Ctrl | % Ctrl (ASK1): 100 % Ctrl | % Ctrl (LCK): 100 % Ctrl
